The values that follow come from patent US10035791B2, “Bicyclic compound and pharmaceutical composition thereof for treating stroke and use thereof” (China Medical University, priority 2016, dated 2018).

Structures are written as SMILES.

In test [1] the test system is primary cortical cultures (PCCs). As to the kind of experiment: Lactate dehydrogenase (LDH) release rate analysis, H2O2-treated PCCs. It counts as cell-based, C57BL/6 mice. As to conditions: for LDH release rate of the PCCs treated with H2O2: compound 100 μM, 10^-4 mol/L H2O2, 24 hours, FIG. 1F; for concentration at which the LDH release rate of the PCCs is reduced most: tested 0.1, 1, 10 and 100 μM, FIG. 1G. How it is done:
H2O2 can cause an oxidative damage to cells and a destruction of the cell membrane, and consequently the LDH is released into medium. For that reason, the lower rate of the LDH released into the culture medium is represented the fewer damaged cells and better cell protection effect of sample.
Test cells are primary cortical cultures (PCCs) in this example. The PCCs are prepared from cerebral cortexes of gestation day 17 embryos from C57BL/6 mice as described previously (Cell Death Differ 2008; 15: 143-151). The PCCs are maintained under serum-free conditions in neurobasal medium (Invitrogen), supplemented with B-27 supplement (2%; invitrogen), glutamine (0.5 mM; Sigma Aldrich), glutamate ([…]; Sigma Aldrich), penicillin (100 U/ml) and streptomycin ([…]; Invitrogen). At 4 days in vitro, half of the medium is removed and replaced with fresh medium without glutamate. The cultures are maintained in a humidified incubator at 37° C. with 5% CO2. At 7 days in vitro, the PCCs are used for experimentation.
The PCCs are seeded in a 24-well plate and are allowed to stand for 20 minutes. […] The PCCs are maintained at 37° C. in a humidified atmosphere of 5% CO2 for 24 hours. After incubation, the culture medium is collected and washed twice with phosphate buffered saline (PBS), and then are analyzed the LDH activity in the culture medium by using LDH Cytotoxicity Detection Kit (TaKaRa Bio Laboratories, Japan) to calculate the percentage cytotoxicity, which is represented the situation of cells damage, of the PCCs. The lower percentage cytotoxicity presents the lower LDH activity detected and less severe of cells damages, which indicates the better cell protection effect of the sample. The LDH activity is measured by a colorimetry. After a reaction between enzyme and particular substrate, an absorbance of the reaction solution and the LDH activity is linearly correlated. The LDH activity (U/10^−3 L) is calculated by a reduced optical density slope at a wavelength of 340 nm within three minutes. A lactate dehydrogenase activity unit is defined as a catalytic consumption of […] NADH per minute.
In general terms: Release of lactate dehydrogenase indicates damage to the cell membrane.

Test [2] concerns ischemic rats. As to the kind of experiment: Volume of the infarction after cerebral ischemia, magnetic resonance imaging (MRI). It counts as in vivo, Sprague-Dawley (SD) rats. Conditions: 30 mg/kg, 7 days after the injection, FIGS. 18A, 18B. The source says:
The ischemic rats are induced by an ischemia-reperfusion model to simulate transient focal cerebral ischemia in rats. Test animals are male Sprague-Dawley (SD) rats weighing 250-300 g. The rats are anesthetized with chloral hydrate (0.4 g/kg IP) and subjected to cerebral ischemia. The ischemia-reperfusion model is induced by ligations of bilateral common carotid arteries (CCAs) and a right middle cerebral artery (MCA). The bilateral CCAs are clamped with non-traumatic arterial clips, and the right MCA is ligated with an 10-0 nylon suture. After 90 minutes ischemia, the suture on the MCA and the arterial clips on CCAs are removed to allow reperfusion. Core body temperature is monitored with a thermistor probe (Hewlett-Packard Model 21090A probe, Hewlett-Packard Company, Andover, Mass.), and maintained at 37° C. with a heating pad during anesthesia. After recovery from anesthesia, rat body temperature is maintained at 37° C. with a heat lamp.
Further, the ischemic rats are assigned into 5 groups, 4 test groups and 1 control group. The ischemic rats of the test groups are injected with 1 mg/kg of the Compound 1, 30 mg/kg of the genipin, 1 mg/kg of the Compound 1 and 100 mg/kg of 2-ME2, and 1 mg/kg of the Compound 1 and the LV-Bmi-1-sh, respectively. The ischemic rats of the control group are injected with the vehicle. At 7 days after the injection, the ischemic rats of the different groups are anesthetized, and the volume of the infarction thereof is assessed by a magnetic resonance imaging (MRI).

Turning to `COC(=O)C1=CO[C@@H](O)[C@@H]2C(COC(=O)[C@H](Cc3ccccc3)NC(=O)OC(C)(C)C)=CC[C@H]12` [Compound 3], in test [1], the “LDH release rate of the PCCs treated with H2O2” value is recorded as “lower LDH release rate” and the “concentration at which the LDH release rate of the PCCs is reduced most” value (“concentration … of the PCCs is reduced most” for short) stood at 100 µM.

Turning to `COC(=O)C1=CO[C@@H](OC(=O)[C@@H](N)Cc2ccccc2)[C@@H]2C(COC(=O)[C@@H](N)Cc3ccccc3)=CC[C@H]12` [Compound 15], in test [1], the “LDH release rate of the PCCs treated with H2O2” value is on record as “lower LDH release rate” and the “concentration … of the PCCs is reduced most” value was determined as 100 µM.

Turning to `COC(=O)C1=CO[C@@H](OC(=O)[C@@H](N)Cc2ccccc2)[C@@H]2C(CO)=CC[C@H]12` [Compound 16], the “concentration … of the PCCs is reduced most” value in test [1] came out at 100 µM.

With `COC(=O)C1=CO[C@@H](O)[C@@H]2C(CO)=CC[C@H]12` [genipin, reference compound], in test [2], the “area of the largest infarction (MRI)” value was “reduced” and the “volume of the infarction (MRI)” value is reported as “reduced”.
